Among the data in patent US7432269B2, “Arylpiperaszine derivatives, to the process for the production thereof and to the use thereof as therapeutic agents” (Bioprojet, priority 2004, dated 2008) are Ki values, retold here.

Counter-ions that a name gives are not always drawn.

Experiment [1] deals with T1, human D3 dopamine receptor (hD3) (Homo sapiens, UniProt P35462).
T1 construct: expressed in transfected cells; host or cells: CHO cells
Nature of the experiment: [3H]spiperone binding to human D3 dopamine receptor (transfected CHO cell membranes). To be noted: CHO cells transfected with hD3. The procedure: CHO cells were transfected with the gene coding for the human D3 dopamine receptor (hD3). [^3H]spiperone binding (0.5 to 2 nM) is performed in the presence of 5 to 10 μg of membrane proteins in a medium containing 120 mM of NaCl, 5 mM of KCl, and 50 mM of Tris-HCl pH 7.4; incubation of 60 minutes at ambient temperature is necessary. Non-specific binding is estimated in the presence of 5 μM of haloperidol. Non-transfected cells have absolutely no binding activity.

Experiment [2] relates to human alpha-1 adrenergic receptor (hα1). Nature of the experiment: [3H]prasozin binding to human alpha-1 adrenergic receptor (transfected HEK 293 cell membranes). As to conditions: HEK 293 cells transfected with hα1. As for the experimental part: HEK 293 cells were transfected with the gene coding for the human alpha-1 adrenergic receptor (hα1). [3H]prasozin binding (0.02 to 2 nM) is performed in the presence of 5 to 10 μg of membrane proteins in a medium containing 0.5 mM of EDTA and 50 mM of Tris-HCl pH 7.4; incubation of 60 minutes at ambient temperature is necessary. Non-specific binding is estimated in the presence of 10 μM of phentolamine. Non-transfected cells have absolutely no binding activity.

T1 sequence (P35462 whole entry): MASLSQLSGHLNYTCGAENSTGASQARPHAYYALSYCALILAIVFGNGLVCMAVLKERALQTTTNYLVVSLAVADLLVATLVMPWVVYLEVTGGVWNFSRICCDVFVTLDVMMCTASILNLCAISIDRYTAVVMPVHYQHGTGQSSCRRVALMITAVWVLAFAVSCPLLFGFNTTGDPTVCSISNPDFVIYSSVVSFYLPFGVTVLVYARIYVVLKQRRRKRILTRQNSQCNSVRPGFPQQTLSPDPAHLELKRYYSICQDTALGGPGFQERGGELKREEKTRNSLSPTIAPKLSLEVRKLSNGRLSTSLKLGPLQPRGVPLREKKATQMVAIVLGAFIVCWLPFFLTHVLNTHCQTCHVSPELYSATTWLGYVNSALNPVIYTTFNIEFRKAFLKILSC

The Ki is a dissociation constant, usually derived from enzyme kinetics or from competition with a known ligand. With `FC(F)(F)c1cccc(N2CCN(CCCCNc3cc(-c4ccccc4)ccn3)CC2)c1` [Example 4, 2-{4-[4-(3-trifluoromethyl-phenyl)piperazin-1-yl]butyl}amino-4-phenylpyridine dihydrochloride], the figures for the Ki in experiment [1] and in experiment [2] were 0.76 nM and 162 nM, respectively.
The matching figures for `Clc1cccc(N2CCN(CCCCNc3cc(-c4ccccc4)ccn3)CC2)c1Cl` [Example 6, 2-{4-[4-(2,3-dichlorophenyl)piperazin-1-yl]butyl}amino-4-phenylpyridine]: 0.55 nM and 136 nM.
